Measured values: paper PMC10011554, “BET inhibitor trotabresib in heavily pretreated patients with solid tumors and diffuse large B-cell lymphomas” (Nature Communications, 2023)
“And” between values parts separate entries of the source, which are not always exact repeats. Identical values can stand only once. Like-named read-outs stand apart in the source and are kept apart here.

Legend:
[1] = system: advanced or unresectable solid tumors; experiment: Tumor response (RECIST v1.1/RANO), PFS and OS in phase I study, parts A and C; assay type: in vivo, human
Protocol: (§1) Secondary objectives were the preliminary efficacy of trotabresib in terms of clinical benefit rate (CR + PR + SD of ≥4 months’ duration), ORR (CR + PR), duration of response or SD, PFS, OS, and the PK of trotabresib. In addition, part C assessed the effects of food on the PK and the safety of trotabresib as a secondary objective. The pharmacodynamics of trotabresib were assessed as an exploratory objective.
(§2) Response was assessed using Response Evaluation Criteria in Solid Tumors (RECIST) v1.1[54] in patients with solid tumors, International Working Group criteria in patients with DLBCL[55], and Response Assessment in Neuro-Oncology (RANO) criteria[56] in patients with CNS tumors (astrocytoma and glioblastoma). For patients with BCC, the response was assessed using a combination of radiological assessment of target lesions per RECIST v1.1, digital clinical photography assessed per World Health Organization (WHO) criteria, and punch biopsies to confirm CR. PK parameters assessed included Cmax, tmax, AUC, t½, apparent clearance (CL/F), and apparent volume of distribution (Vz/F).
(§3) Bayesian logistic regression model based on dose-limiting toxicity was used to provide initial guidance for dose recommendations in the dose-escalation phase. The final decision was reached by considering the totality of safety, PK, and PD data. For binary efficacy endpoints, two-sided 95% Clopper–Pearson exact confidence intervals were provided. For time-to-event endpoints (PFS and OS), the median and 95% CI were estimated using the Kaplan–Meier method.

[2] = system: R/R DLBCL; experiment: Tumor response (International Working Group criteria), PFS and OS in phase I study, part B; assay type: in vivo, human
Protocol: as §1, §2, §3

[3] = system: U-2932 (ABC DLBCL); parameters: method as in Report CC-90010-Pharm-1018; conditions: read-out: absolute IC50, proliferation, cited from earlier work
[4] = system: BR0869f ER-PR-Her2+ PDX-derived breast cancer model; parameters: method as in Investigator's Brochure; conditions: 7 or 14 days, ref Investigator's Brochure, read-out: mean IC50, colony formation; cited from earlier work
[5] = system: COH69 TNBC PDX-derived model; parameters: method as in Investigator's Brochure; conditions: COH69, ref Investigator's Brochure; read-out: IC50, colony formation; cited from earlier work
[6] = system: COH71 TNBC PDX-derived model; parameters: method as in Investigator's Brochure; conditions: COH71, ref Investigator's Brochure; read-out: IC50, colony formation; cited from earlier work
[7] = system: TNBR3 TNBC PDX-derived model; parameters: method as in Investigator's Brochure; conditions: TNBR3, ref Investigator's Brochure; read-out: IC50, colony formation; cited from earlier work
[8] = system: COH70 TNBC PDX; parameters: method as in Unpublished data from Celgene Corporation; conditions: Day 38, ref Unpublished data from Celgene Corporation, cited from earlier work
[9] = parameters: method as in Unpublished data from Celgene Corporation; conditions: ref Unpublished data from Celgene Corporation, cited from earlier work
[10] = system: CYP3A4/5, CYP2C8; parameters: method as in Investigator's Brochure; conditions: ref Investigator's Brochure; cited from earlier work
[11] = system: CYP2C9; parameters: method as in Investigator's Brochure; conditions: CYP2C9, ref Investigator's Brochure; read-out: IC50, direct inhibition; cited from earlier work
[12] = system: CYP2C19; parameters: method as in Investigator's Brochure; conditions: CYP2C19, ref Investigator's Brochure; read-out: IC50, direct inhibition; cited from earlier work
[13] = system: OATP1B1; parameters: method as in Investigator's Brochure; conditions: OATP1B1, ref Investigator's Brochure; read-out: IC50, transporter inhibition; cited from earlier work
[14] = system: OAT1; parameters: method as in Investigator's Brochure; conditions: OAT1, 30 µM, ref Investigator's Brochure; cited from earlier work
[15] = system: BCRP or MRP2; parameters: method as in Investigator's Brochure; conditions: BCRP or MRP2, ref Investigator's Brochure; cited from earlier work
[16] = ref Investigator's Brochure, cited from earlier work
[17] = part A (N = 69), 02 Dec 2019 cutoff
[18] = part B R/R DLBCL (N = 23), treated population

Compound: Cn1cc(-c2cc(S(C)(=O)=O)ccc2OCC2CC2)c2ccccc2c1=O [trotabresib]
- patients on treatment ≥24 cycles with sustained SD ([1]; part A): five
- clinical benefit rate (CBR; CR, PR, or SD ≥4 months) ([1]; part A (N = 69)): 17.4%
- objective response rate (ORR; CR or PR) ([1]; part A (N = 69)): 2.9%
- subjects with SD [1, 17]: 33.3%
- subjects with SD ≥ 4 months [1, 17]: 14.5%
- subjects with confirmed CR [1, 17]: 1.4%
- subjects with confirmed PR [1, 17]: 1.4%
- Median OS (95% CI) ([1]; part A (n = 69)): 189 (161–258) days
- Median PFS (95% CI) ([1]; part A (n = 69)): 57 (52–81) days
- OS range ([1]; part A (n = 69)): 15 to 853 days
- PFS range ([1]; part A (n = 69)): 11 to 945 days
- subjects with stable disease ([1]; part A, 10 December 2018 cutoff): 27.5%
- duration of confirmed partial response ([1]; part A, one patient with endometrial cancer): 8 cycles
- duration of complete response ([1]; part A, one patient with grade 2 diffuse astrocytoma): 19 cycles
- total treatment duration ([1]; part A, one patient with salivary gland cancer, ongoing at cycle 53): 4.0 years
- time on treatment ([1]; part A, one patient with thymic cancer (38 cycles)): 3.1 years
- further patients on treatment ≥1 year with sustained SD ([1]; part C): seven
- best response CR ([1]; part C (N = 41)): 0%
- best response PD ([1]; part C (N = 41)): 19.5%
- best response PR ([1]; part C (N = 41)): 0%
- CBR ([1]; part C (N = 41), treated population): 31.7%
- ORR ([1]; part C (N = 41), treated population, confirmed responses): 0.0%
- Median OS (95% CI) ([1]; part C (n = 41)): 508 days and 508 (239–NE) days
- Median PFS (95% CI) ([1]; part C (n = 41)): 114 (84–239) days
- OS range ([1]; part C (n = 41)): 33 to 508 days
- PFS range ([1]; part C (n = 41)): 33 to 438 days
- reduction in tumor size (minor response) ([1]; part C, one patient with refractory high-grade astrocytoma): 38%
- treatment duration ([1]; part C, one patient with treatment-refractory high-grade astrocytoma, ongoing): 2.5 years
- reduction in target lesion size ([2]; one patient with GCB immunophenotype R/R DLBCL, after two cycles): 57%
- Median OS (95% CI) ([2]; part B DLBCL (n = 23)): 159 days and 159 (101–NE) days
- Median PFS (95% CI) ([2]; part B DLBCL (n = 23)): 54 (49–65) days
- OS range ([2]; part B DLBCL (n = 23)): 44 to 423 days
- PFS range ([2]; part B DLBCL (n = 23)): 12 to 423 days
- best response CR ([2]; part B R/R DLBCL (N = 23)): 8.7%
- best response PD ([2]; part B R/R DLBCL (N = 23)): 43.5%
- best response PR ([2]; part B R/R DLBCL (N = 23)): 4.3%
- best response SD ([2]; part B R/R DLBCL (N = 23)): 8.7%
- CBR [2, 18]: 17.4%
- ORR [2, 18]: 13.0%
- total treatment duration ([2]; part B, one patient with transformed DLBCL, ongoing at cycle 17): 1.6 years
- IC50 ([3]; U-2932, Experiment 1, ref Report CC-90010-Pharm-1018): 150 nM
- IC50 ([3]; U-2932, Table 2, ref Report CC-90010-Pharm-1018): 167 nM
- IC50 [4]: 120 ± 10 nM
- IC50 [5]: 70 nM
- IC50 [6]: 180 ± 20 nM
- IC50 [7]: 80 nM
- mean percent TGI ([8]; COH70, 12.5 mg/kg/dose PO QD 3 days on/4 days off): 64%
- mean percent TGI ([8]; COH70, 16 mg/kg/dose PO QD 3 days on/4 days off): 68%
- mean percent TGI ([8]; COH70, 20 mg/kg/dose PO QD 3 days on/4 days off): 72%
- weight loss ([9]; GBM15, 15 mg/kg/dose group): -6.6%
- weight loss ([9]; GBM15, 25 mg/kg/dose group): -3.7%
- weight loss ([9]; GBM15, 37.5 mg/kg/dose group): -3.1%
- enzymes mediating metabolism [10]: mediated primarily by CYP3A4/5 with minor involvement of CYP2C8
- IC50 [11]: ≥ 13900 nM
- IC50 [12]: ≥ 13900 nM
- IC50 [13]: 4940 nM
- inhibition of mediated transport [14]: 45.6%
- transporter inhibition [15]: not an inhibitor
- severely toxic dose ([16]; 4-week Beagle dog study): 7.50 mg base/kg/dose
- cardiovascular and respiratory effects ([16]; conscious Beagle dogs): no CC-90010-related effects on electrocardiograms, heart rate
- highest non-severely toxic dose (HNSTD) ([16]; dog, 3-days-on/4-days-off schedule): 3.75 mg base/kg/dose
- mean exposure corresponding to the dog HNSTD [16]: 10000 ng·h/mL
